Test results reported in the SangsterLogP compilation.

In order of rising logP:
1. Clc1cc(Cl)c(Cl)c(-c2c(Cl)cccc2Cl)c1Cl  6.1
2. Clc1ccc(Cl)c(-c2c(Cl)ccc(Cl)c2Cl)c1Cl  6.27
3. Clc1cc(Cl)c(-c2c(Cl)cccc2Cl)c(Cl)c1Cl  6.28
4. Clc1cc(Cl)c(-c2c(Cl)ccc(Cl)c2Cl)c(Cl)c1  6.31
5. Clc1cc(Cl)c(Cl)c(-c2c(Cl)ccc(Cl)c2Cl)c1  6.41
6. Clc1cccc(-c2c(Cl)c(Cl)cc(Cl)c2Cl)c1Cl  6.42
7. Clc1cccc(-c2c(Cl)cc(Cl)c(Cl)c2Cl)c1Cl  6.43
8. Clc1cc(Cl)c(-c2cc(Cl)cc(Cl)c2Cl)c(Cl)c1  6.45
9. Clc1cc(Cl)c(-c2cc(Cl)c(Cl)cc2Cl)c(Cl)c1  6.46
10. Clc1cc(Cl)c(-c2c(Cl)ccc(Cl)c2Cl)cc1Cl  6.46
11. Clc1ccccc1-c1c(Cl)c(Cl)c(Cl)c(Cl)c1Cl  6.49
12. Clc1cc(-c2c(Cl)cccc2Cl)c(Cl)c(Cl)c1Cl  6.5
13. Clc1ccc(-c2c(Cl)c(Cl)cc(Cl)c2Cl)c(Cl)c1  6.52
14. Clc1ccc(-c2c(Cl)ccc(Cl)c2Cl)c(Cl)c1Cl  6.61
15. Clc1cc(Cl)c(Cl)c(-c2cc(Cl)cc(Cl)c2Cl)c1  6.63
16. Clc1cc(Cl)cc(-c2c(Cl)c(Cl)cc(Cl)c2Cl)c1  6.68
17. Clc1cc(Cl)cc(-c2c(Cl)cc(Cl)c(Cl)c2Cl)c1  6.68
18. Clc1cc(Cl)c(Cl)c(-c2cc(Cl)c(Cl)cc2Cl)c1  6.71
19. Clc1cc(Cl)c(-c2cc(Cl)c(Cl)c(Cl)c2)c(Cl)c1  6.74
20. Clc1cc(Cl)c(Cl)c(-c2ccc(Cl)c(Cl)c2Cl)c1  6.79
21. Clc1ccc(-c2cc(Cl)c(Cl)c(Cl)c2Cl)c(Cl)c1  6.8
22. Clc1cccc(-c2c(Cl)c(Cl)c(Cl)c(Cl)c2Cl)c1  6.84
23. Clc1ccc(-c2c(Cl)c(Cl)c(Cl)c(Cl)c2Cl)cc1  6.87
24. Clc1cc(Cl)cc(-c2cc(Cl)c(Cl)c(Cl)c2Cl)c1  7.01
25. Clc1cc(Cl)c(Cl)c(-c2cc(Cl)c(Cl)c(Cl)c2)c1  7.02
